According to patent EP2739618B1, “QUINAZOLINE COMPOUNDS AS SERINE/THREONINE KINASE INHIBITORS” (Array Biopharma, Inc., priority 2011, dated 2013):

Each compound was assayed against T1, human ERK-2 (Mitogen Activated Kinase 1) (Homo sapiens, UniProt P28482) (assay: ERK-2 Enzymatic Assay). Details: TABLE I; 5nM ERK-2 enzyme, 25µM ATP, S/T17 peptide substrate; single assay or mean of multiple assays.
T1 construct: N-terminal 6-His fusion protein in E. coli and corresponding to aa 8-360; 6-His (N); made in house; host or cells: E. coli
Type: biochemical
Experimental: Compounds were tested in an enzymatic assay using human ERK-2 (Mitogen Activated Kinase 1), recombinantly expressed as an N-terminal 6-His fusion protein in E. coli and corresponding to aa 8-360. The substrate used was the fluorescent Omnia peptide S/T17 (Invitrogen of Carlsbad, CA; Cat. KNZ1171C). Test compounds were diluted in DMSO in 3-fold serial dilutions at 100x final concentrations. […] The assay was run at ambient temperature in a white 384-well polypropylene plate (Nunc, Inc of Naperville, IL; Cat. 267462) collecting data every 50 seconds for approximately 30 minutes on an Envision plate reader (PerkinElmer, Inc. of Waltham, MA); Excitation 340 nm/Emission 495 nm. The data collected from each well was fit to a straight line and the resulting rates were used to calculate percent of control. Percent of control was plotted against compound concentration and IC50 values were determined using a four-parameter fit. Representative data is in TABLE I and TABLE II. The reported IC50 may be from a single assay or the mean of multiple assays.

T1 sequence (P28482 8-360): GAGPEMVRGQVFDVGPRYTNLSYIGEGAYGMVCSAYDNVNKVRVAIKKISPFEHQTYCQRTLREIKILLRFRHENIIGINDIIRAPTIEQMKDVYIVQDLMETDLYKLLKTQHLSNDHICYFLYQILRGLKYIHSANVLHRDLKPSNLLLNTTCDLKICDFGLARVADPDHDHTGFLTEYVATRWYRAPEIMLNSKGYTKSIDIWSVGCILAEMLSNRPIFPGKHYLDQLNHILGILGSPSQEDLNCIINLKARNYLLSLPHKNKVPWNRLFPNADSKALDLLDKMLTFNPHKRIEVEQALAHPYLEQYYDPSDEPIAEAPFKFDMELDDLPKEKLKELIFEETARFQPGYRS

| IC50 | SMILES |
| --- | --- |
| 7.3 nM | C[C@H](Nc1ncc2ccc(C(=O)N[C@@H](c3ccc(Cl)c(F)c3)[C@@H]3CCCN3)cc2n1)C(F)(F)F [Compound I-40, 2-((S)-2,2,2-trifluoro-1-methyl-ethylamino)-quinazoline-7-carboxylic acid [(S)-(4-chloro-3-fluoro-phenyl)-(S)-pyrrolidin-2-yl-methyl]-amide] |
| 0.55 nM | Cn1cc([C@@H](NC(=O)c2ccc3cnc(NC4CCOCC4)nc3c2)c2ccc(OC(F)F)cc2)cn1 [Compound I-41, 2-(tetrahydropyran-4-ylamino)-quinazoline-7-carboxylic acid [(S)-(4-difluoromethoxy-phenyl)-(1-methyl-1H-pyrazol-4-yl)-methyl]-amide] |
| 1.4 nM | Cn1cc([C@@H](NC(=O)c2ccc3cnc(N[C@@H]4CCO[C@H](CO)C4)nc3c2)c2ccc(Cl)c(F)c2)cn1 [Compound I-47, N-((S)-(4-chloro-3-fluorophenyl)(1-methyl-1H-pyrazol-4-yl)methyl)-2-((2S,4R)-2-(hydroxymethyl)tetrahydro-2H-pyran-4-ylamino)quinazoline-7-carboxamide] |
| 6 nM | COc1ccc([C@H](NC(=O)c2cc(F)c3cnc(NCC4CC4)nc3c2)c2cnn(C)c2)cc1F [Compound I-60, 2-(Cyclopropylmethyl-amino)-5-fluoro-quinazoline-7-carboxylic acid [(S)-(3-fluoro-4-methoxy-phenyl)-(1-methyl-1H-pyrazol-4-yl)-methyl]-amide] |
| 2 nM | COc1ccc([C@H](NC(=O)c2cc(F)c3cnc(N[C@@H]4CCOC4)nc3c2)c2cnn(C)c2)cc1F [Compound I-61, 5-Fluoro-N-((S)-(3-fluoro-4-methoxyphenyl)(1-methyl-1H-pyrazol-4-yl)methyl)-2-((R)-tetrahydrofuran-3-ylamino)quinazoline-7-carboxamide] |
| 6 nM | COc1ccc([C@H](NC(=O)c2cc(F)c3cnc(NC4(C)COC4)nc3c2)c2cnn(C)c2)cc1F [Compound I-64, 5-Fluoro-2-(3-methyl-oxetan-3-ylamino)-quinazoline-7-carboxylic acid [(S)-(3-fluoro-4-methoxy-phenyl)-(1-methyl-1H-pyrazol-4-yl)-methyl]-amide] |
| 5 nM | COc1ccc(C(NC(=O)c2ccc3cnc(NC4CCOCC4)nc3c2)c2cnn(CCO)c2)cc1F (stereo not drawn) [Compound I-67, N-((3-fluoro-4-methoxyphenyl) (1-(2-hydroxyethyl)-1H-pyrazol-4-yl)methyl)-2-(tetrahydro-2H-pyran-4-ylamino) quinazoline-7-carboxamide] |

Same assay, conditions: TABLE II; 5nM ERK-2 enzyme, 25µM ATP, S/T17 peptide substrate; single assay or mean of multiple assays

| IC50 | SMILES |
| --- | --- |
| 13 nM | COc1ccc([C@H](NC(=O)c2ccc3cnc(NC4CSC4)nc3c2)c2cnn(C)c2)cc1F [II-5] |
| 2.1 nM | COc1ccc([C@H](NC(=O)c2ccc3cnc(Nc4ccnn4C)nc3c2)c2cnn(C)c2)cc1F [II-16] |
| 4.8 nM | COc1ccc([C@H](NC(=O)c2ccc3cnc(Nc4ccnc(C)c4)nc3c2)c2cnn(C)c2)cc1F [II-17] |
| 6.8 nM | COc1ccc([C@H](NC(=O)c2cc(F)c3cnc(Nc4cn(C)nc4C)nc3c2)c2cnn(C)c2)cc1F [II-19] |
| 2.3 nM | COc1ccc([C@H](NC(=O)c2cc(F)c3cnc(N[C@@H](C)CO)nc3c2)c2cnn(C)c2)cc1F [II-21] |
| 7 nM | COc1ccc([C@H](NC(=O)c2cc(F)c3cnc(NC4CCOCC4)nc3c2)c2cnn(C)c2)cc1 [II-22] |
| 10.8 nM | COc1ccc([C@H](NC(=O)c2cc(F)c3cnc(Nc4ccnn4C)nc3c2)c2cnn(C)c2)cc1F [II-23] |
| 14.6 nM | Cc1cc(Nc2ncc3ccc(C(=O)N[C@@H](c4ccc(Cl)c(F)c4)c4cnn(C)c4)cc3n2)n(C)n1 [II-24] |
| 5.6 nM | C[C@@H](CO)Nc1ncc2c(F)cc(C(=O)N[C@@H](c3cccc(F)c3)c3cnn(C)c3)cc2n1 [II-26] |
| 960 nM | COc1ccc([C@H](NC(=O)c2ccc3cnc(Nc4cn(C)nc4C)nc3c2)c2cnn(C)c2)cc1F [II-27] |
| 3 nM | COc1ccc([C@H](NC(=O)c2ccc3cnc(NC4CCOCC4)nc3c2)c2ccnn2C)cc1F [II-28] |
| 2.2 nM | COc1ccc([C@H](NC(=O)c2cc(F)c3cnc(NC4CCOCC4)nc3c2)c2ccnn2C)cc1F [II-29] |
| 1000 nM | COc1ccc([C@H](NC(=O)c2ccc3cnc(N[C@H]4C[C@H]5C[C@@H]4CO5)nc3c2)c2cnn(C)c2)cc1F [II-30] |
| 15 nM | COCC(C)Nc1ncc2ccc(C(=O)N[C@@H](c3ccc(OC)c(F)c3)c3cnn(C)c3)cc2n1 (stereo partly drawn) [II-31] |
| 1000 nM | COc1ccc(C(NC(=O)c2cc(F)c3cnc(NC4CC5CC4CO5)nc3c2)c2cnn(C)c2)cc1F (stereo not drawn) [II-34] |
| 61 nM | COc1ccnc(C(NC(=O)c2cc(F)c3cnc(NC4CCOCC4)nc3c2)c2cnn(C)c2)c1 (stereo not drawn) [II-35] |

| IC50 | SMILES |
| --- | --- |
| 3.8 nM | COc1ccc([C@H](NC(=O)c2ccc3cnc(N[C@H]4CCOC[C@H]4F)nc3c2)c2ccnn2C)cc1F [II-36] |
| 3.6 nM | COc1ccc([C@H](NC(=O)c2ccc3cnc(N[C@H]4CCOC[C@@H]4F)nc3c2)c2ccnn2C)cc1F [II-37] |
| 151 nM | Cn1nccc1[C@@H](NC(=O)c1ccc2cnc(NC3CCOCC3)nc2c1)c1ccc(Cl)c(F)c1 [II-39] |
| 26 nM | Cn1nccc1[C@@H](NC(=O)c1ccc2cnc(NC3CCOCC3)nc2c1)c1ccc(C#N)c(Cl)c1 [II-40] |
| 5.2 nM | Cn1cc([C@@H](NC(=O)c2ccc3cnc(NC4CCOCC4)nc3c2)c2ccc(C(F)(F)F)c(F)c2)cn1 [II-41] |
| 12.1 nM | Cn1cc(C(NC(=O)c2ccc3cnc(NC4CCOCC4)nc3c2)c2ccc(OC(F)F)cc2)cn1 (stereo not drawn) [II-43] |
| 6.9 nM | O=C(N[C@@H](c1ccc(OC(F)(F)F)c(F)c1)C1CNCCO1)c1ccc2cnc(NC3CCOCC3)nc2c1 (stereo partly drawn) [II-45] |
| 1.1 nM | COc1ccc([C@H](NC(=O)c2cc(F)c3cnc(NC4CCOCC4)nc3c2)c2cncn2C)cc1F [II-46] |
| 1.3 nM | COc1ccc([C@H](NC(=O)c2cc(F)c3cnc(NC4CCOCC4)nc3c2)c2cnco2)cc1F [II-47] |
| 1.4 nM | COc1ccc([C@H](NC(=O)c2cc(F)c3cnc(NC4CCOCC4)nc3c2)c2cnnn2C)cc1F [II-48] |
| 85.5 nM | COc1ccc([C@H](NC(=O)c2cc(F)c3cnc(NC4CCOCC4)nc3c2)c2cn(C)cn2)cc1F [II-49] |
| 59.1 nM | COc1ccc([C@H](NC(=O)c2cc(F)c3cnc(NC4CCOCC4)nc3c2)c2ncc[nH]2)cc1F [II-50] |
| 164 nM | COc1ccc([C@H](NC(=O)c2cc(F)c3cnc(NC4CCOCC4)nc3c2)c2c[nH]c(C)n2)cc1F [II-51] |
| 1.9 nM | COc1ccc([C@H](NC(=O)c2cc(F)c3cnc(NC4CCOCC4)nc3c2)c2nccn2C)cc1F [II-52] |
| 1.5 nM | COc1ccc([C@H](NC(=O)c2cc(F)c3cnc(Nc4ccnn4C)nc3c2)c2cncn2C)cc1F [II-53] |
| 8.5 nM | COc1ccc([C@H](NC(=O)c2cc(F)c3cnc(Nc4ccnn4C)nc3c2)c2nccn2C)cc1F [II-54] |

| SMILES | IC50 |
| --- | --- |
| COc1ccc([C@H](NC(=O)c2cc(F)c3cnc(N[C@H]4C[C@@H](F)C4)nc3c2)c2cnn(C)c2)cc1F [II-33] | 3.8 nM |
| Cn1nccc1Nc1ncc2ccc(C(=O)NC(c3ccc(Cl)c(F)c3)C3(F)CCNC3)cc2n1 (stereo not drawn) [II-42] | 34.6 nM |
| O=C(N[C@@H](c1ccc(OC(F)(F)F)c(F)c1)[C@H]1CCCNC1)c1ccc2cnc(NC3CCOCC3)nc2c1 [II-44] | 216 nM |

The compounds below were run on PMA-stimulated P90RSK(Ser380) phosphorylation (assay: Cellular P90RSK(Ser380) Phosphorylation Assay). Details: Homo sapiens; HepG2 cells, 1.5 h compound incubation, PMA 100ng/mL 30 min, normalized to GAPDH signal; single assay or mean of multiple assays.
Type: cell-based
Experimental: Cellular P90RSK(Ser380) Phosphorylation Assay
Inhibition of PMA-stimulated P90RSK(Ser380) phosphorylation was determined by the following in vitro cellular mechanistic assay, which comprises incubating cells with a compound for 1.5 h and quantifying fluorescent pP90RSK(Ser380) signal on fixed cells and normalizing to GAPDH signal.
Materials and Methods: HepG2 cells were obtained from ATCC and grown in DMEM supplemented with 10% fetal bovine serum. Cells were plated in 96-well plates at 35,000 cells/well and allowed to attach overnight at 37 °C/5% CO2. Diluted compounds were then added at a final concentration of 0.5% DMSO. After 1.5 h compound incubation, cells were stimulated with the addition of PMA (phorbol 12-myristate 13-acetate) at a final concentration of 100ng/mL; the PMA stimulation was a 30-min incubation at 37 °C/5% CO2. After the 30-minute PMA stimulation, cells were washed with PBS and fixed in 3.7% formaldehyde in PBS at room temperature for 15-20 min. This was followed by another wash in PBS and then permeabilization in 100% MeOH at room temperature for 10-15 min. Following the permeabilization incubation, cells were washed in PBS/0.05% Tween-20, followed by a block in Odyssey blocking buffer (LI-COR Biosciences) for at least 1 hour. Antibodies to phosphorylated P90RSK(Ser380) (Cell Signaling #9335, rabbit monoclonal) and GAPDH (Fitzgerald 10R-G109a, mouse monoclonal) were added to the cells and incubated overnight at 4 °C. pP90RSK(Ser380) antibody was used at a 1:250 dilution; GAPDH was used at a 1:10,000 dilution. After washing with PBS/0.05% Tween-20, the cells were incubated with fluorescently-labeled secondary antibodies (Anti-rabbit-Alexa Flour680, Invitrogen Cat#A21109; Anti-mouse-IRDye800CW, Rockland Inc. Cat#610-131-121) for 1 h. Both secondary antibodies were used at a 1:1000 dilution. Cells were then washed and analyzed for fluorescence at both wavelengths using the Odyssey Infrared Imaging System (LI-COR Biosciences). Phosphorylated P90RSK(Ser380) signal was normalized to GAPDH signal. Representative data is in TABLE III (infra). The reported IC50 may be from a single assay or the mean of multiple assays.

| SMILES | IC50 |
| --- | --- |
| C[C@H](Nc1ncc2ccc(C(=O)N[C@@H](c3ccc(Cl)c(F)c3)[C@@H]3CCCN3)cc2n1)C(F)(F)F [Compound I-40, 2-((S)-2,2,2-trifluoro-1-methyl-ethylamino)-quinazoline-7-carboxylic acid [(S)-(4-chloro-3-fluoro-phenyl)-(S)-pyrrolidin-2-yl-methyl]-amide] | 2900 nM |
| Cn1cc([C@@H](NC(=O)c2ccc3cnc(NC4CCOCC4)nc3c2)c2ccc(OC(F)F)cc2)cn1 [Compound I-41, 2-(tetrahydropyran-4-ylamino)-quinazoline-7-carboxylic acid [(S)-(4-difluoromethoxy-phenyl)-(1-methyl-1H-pyrazol-4-yl)-methyl]-amide] | 115 nM |
| Cn1cc([C@@H](NC(=O)c2ccc3cnc(N[C@@H]4CCO[C@H](CO)C4)nc3c2)c2ccc(Cl)c(F)c2)cn1 [Compound I-47, N-((S)-(4-chloro-3-fluorophenyl)(1-methyl-1H-pyrazol-4-yl)methyl)-2-((2S,4R)-2-(hydroxymethyl)tetrahydro-2H-pyran-4-ylamino)quinazoline-7-carboxamide] | 29 nM |
| COc1ccc([C@H](NC(=O)c2cc(F)c3cnc(NCC4CC4)nc3c2)c2cnn(C)c2)cc1F [Compound I-60, 2-(Cyclopropylmethyl-amino)-5-fluoro-quinazoline-7-carboxylic acid [(S)-(3-fluoro-4-methoxy-phenyl)-(1-methyl-1H-pyrazol-4-yl)-methyl]-amide] | 334 nM |
| COc1ccc([C@H](NC(=O)c2cc(F)c3cnc(N[C@@H]4CCOC4)nc3c2)c2cnn(C)c2)cc1F [Compound I-61, 5-Fluoro-N-((S)-(3-fluoro-4-methoxyphenyl)(1-methyl-1H-pyrazol-4-yl)methyl)-2-((R)-tetrahydrofuran-3-ylamino)quinazoline-7-carboxamide] | 66 nM |
| COc1ccc([C@H](NC(=O)c2cc(F)c3cnc(NC4(C)COC4)nc3c2)c2cnn(C)c2)cc1F [Compound I-64, 5-Fluoro-2-(3-methyl-oxetan-3-ylamino)-quinazoline-7-carboxylic acid [(S)-(3-fluoro-4-methoxy-phenyl)-(1-methyl-1H-pyrazol-4-yl)-methyl]-amide] | 978 nM |
| COc1ccc(C(NC(=O)c2ccc3cnc(NC4CCOCC4)nc3c2)c2cnn(CCO)c2)cc1F (stereo not drawn) [Compound I-67, N-((3-fluoro-4-methoxyphenyl) (1-(2-hydroxyethyl)-1H-pyrazol-4-yl)methyl)-2-(tetrahydro-2H-pyran-4-ylamino) quinazoline-7-carboxamide] | 165 nM |
| COc1ccc([C@H](NC(=O)c2ccc3cnc(NC4CSC4)nc3c2)c2cnn(C)c2)cc1F [II-5] | 50.5 nM |
| COc1ccc([C@H](NC(=O)c2cc(F)c3cnc(N[C@H]4CC[C@H](O)CC4)nc3c2)c2cnn(C)c2)cc1F [II-13] | 84.4 nM |
